Data as given in patent publication US8232240B2, “Inhibitors of enveloped virus infectivity” (priority 2005, dated 2012).
Entries after “also recorded” stand apart in the source; their conditions may differ. Where a SMILES comes first, the peptide text is derived from it. The star is where a group is joined. Cbz = O=C(OCc1ccccc1)*; CHN2 = [N-]=[N+]=C*; tBu = CC(C)(C)*

Tests used:
[1] = system: EboV Zaire GP; format: cell-based
[2] = system: cell-cell fusion mediated by Nipah virus glycoproteins F and G; format: cell-based; details: 24 hours
[3] = system: Cote d'Ivoire GPΔMuc; format: cell-based, Ebola Cote d'Ivoire
[4] = molecular target: T1, CatL (Chlorocebus aethiops, UniProt Q9GKL8); format: cell-based
T1 construct: CatB and Cathepsin L (CatL) enzymatic activities in CA074-treated cells; endogenous in cells; host or cells: Vero cells

[5] = system: VSV G; format: cell-based, vesicular stomatitis virus (VSV)
[6] = system: Marburg-GP; format: cell-based, Marburg virus
[7] = system: CatB; format: cell-based
[8] = system: Marburg (Musoke strain) virus; format: cell-based
[9] = system: Sudan GPΔMuc; format: cell-based, Ebola Sudan
[10] = system: Reston GPΔMuc; format: cell-based, Ebola Reston
[11] = system: EboV-Zaire (1995 strain); format: cell-based

T1 sequence (Q9GKL8 114-333): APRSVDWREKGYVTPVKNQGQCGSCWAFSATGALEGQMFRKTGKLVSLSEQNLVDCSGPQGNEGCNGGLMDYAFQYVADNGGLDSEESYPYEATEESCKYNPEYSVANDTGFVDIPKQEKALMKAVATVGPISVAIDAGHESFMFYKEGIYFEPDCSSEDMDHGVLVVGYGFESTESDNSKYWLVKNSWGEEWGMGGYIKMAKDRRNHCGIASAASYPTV

Compound | EboV GP-dependent infection of Vero cells [1] | infection, Zaire [1] | cell-cell fusion by Nipah virus glycoproteins (syncytia) [2] | infection, Cote d'Ivoire [3] | approximate level of cellular CatL activity (L %) [4] [%] | inhibition of CatL activity [4] | VSV G-dependent infection [5] | infection, Marburg [6] | approximate level of cellular CatB activity (B %) [7] [%] | inhibition of CatB activity [7] | inhibition of growth of Marburg virus on Vero cells [8] | infection, Sudan [9] | infection, Reston [10] | block of infection, Ebola Zaire [1] [%] | reduction of infection in the absence of detectable CatB activity [1] [%] | block of infection, Cote d'Ivoire [3] [%] | expression of cell-associated GP1 [11] | infectivity of Marburg [6] | inhibition of infection, Sudan [9] [%] | infectivity of Reston [10]
CC(C)(C)Oc1ccc(C[C@H](NC(=O)[C@H](Cc2ccccc2)NC(=O)OCc2ccccc2)C(=O)C=[N+]=[N-])cc1 [FYdmk, Z-Phe-Tyr-(tBu)-diazomethylketone] (Cbz-Phe-Tyr(tBu)-CHN2) | inhibited infection | blocked | dramatically reduces cell-cell fusion; also recorded: inhibits cell-cell fusion | blocked | ~0 | can inhibit | Neither compound inhibited | blocked | ~10 | can inhibit | not each alone | blocked | blocked | – | – | – | – | – | – | –
CCCNC(=O)[C@H]1O[C@@H]1C(=O)N[C@H](C(=O)N1CCC[C@H]1C(=O)O)[C@@H](C)CC [CA074] | inhibited infection | – | – | – | ~100 | – | Neither compound inhibited | – | ~10 | – | not each alone | – | – | ~99 | ~99.9 | ~99 | markedly reduced | unaffected | 90 | unaffected
